Where two headings read alike, the source gives them in different places.
Legend:
[1] = test system: T. cruzi (Tulahuen strain); experiment: microbe, parasite or virus in culture; type: cell-based, Trypanosoma cruzi; conditions: for activity at 10 µM: Table S2, read-out: T. cruzi % growth @ 10 uM (Amastigotes); for EC50: read-out: T. cruzi EC50
Outline: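 Tulahuen parasites expressing beta-galactosidase were added (1×10^4 trypomastigotes/well) to 3T3 fibroblasts plated 24 h earlier, 4 h before compound (10 µM final).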

T. brucei = conditions: cited from earlier work
in vitro = type: cell-based, murine; conditions: mouse, 3T3 fibroblasts, 72 hours; separate assays separated by semicolons; read-out: Mammalian cell CC50
3T3 fibroblast cells = experiment: cells; type: cell-based, murine; conditions: for activity at 10 µM: Mus musculus, NIH3T3, 72 h, Table S2, read-out: Mammalian (3T3) cell % growth at 10 uM
[2] = test system: T. cruzi (Tulahuen strain); experiment: Mouse model of acute T. cruzi infection; type: in vivo, BALB/c mice; conditions: oral gavage days 7-11 post-infection, doses of Table 5
Procedure: Age 8–10 week-old BALB/c female mice were obtained from Harlan Laboratories. Mice were infected with 1×10^4 tissue culture derived wild-type trypomastigotes of the Tulahuen strain by subcutaneous injection on day 0. They were administered test drugs in groups of five by oral gavage on days 7–11. All drugs were dissolved in vehicle composed of sodium carboxymethylcellulose 0.5% w/v, benzyl alcohol 0.5% v/v, Tween 80 0.4% v/v diluted in 0.9% aqueous NaCl solution. Parasitemia was quantified by examining tail blood specimens at times points indicated in Figures 2, 3, S4, and S5 as previously described.
Selected drugs identified in the above screens were tested alone or in combination in the mouse model of T. cruzi infection. In the first experiment, we focused on posaconazole and benznidazole because of their advanced clinical status for treating Chagas disease. Since benznidazole and posaconazole are known to have curative activity as monotherapies, we used sub-curative doses so that additive or synergistic interactions could be detected when used in combinations. The other drugs were administered at doses described in the literature for treating mice. Briefly, mice were gavaged once or twice daily with a given drug or combination on days 7–11 post-infection. We conducted a second experiment (Figure 3) examining the same drugs with the purpose of confirming and expanding upon the initial results shown in Figure 2.

T. cruzi amastigotes = experiment: Combination screen of drug pairs at EC25; type: cell-based, Trypanosoma cruzi; conditions: at EC25, alone or in combination
Procedure: […] compounds were selected for testing in combinations. All two-way combinations were tested (300 experiments). First, EC25 concentrations were determined for the individual compounds against T. cruzi amastigotes as described above. To test for synergy, compounds were evaluated in quadruplicate individually at the experimentally determined EC25, and in combination with other compounds at each respective EC25 concentration (further explained in the Discussion section). For inclusion in downstream analysis, each individual compound in a pair was required to inhibit 25±10% of growth in positive control (untreated) wells. If not in this range, the experiment was repeated. The measured growth of T. cruzi amastigotes was compared to the predicted effect of the combination as follows. Assuming a simple additive effect, the predicted inhibition of the drug pairs was expected to be the product of the percent-growths of each compound when tested alone. For example, if compound A gave 75% growth of the control and compound B gave 80% of the control growth, then the combination would be predicted to be 60% (i.e., 75%×80% = 60%).
Cells in green indicate a greater effect than predicted (“synergism”) and the squares in red indicate a lesser effect than predicated (“antagonism”).

[3] = Trypanosoma cruzi, TULAHUEN, Fibroblast, 120 h
[4] = Trypanosoma cruzi, TULAHUEN, Fibroblast, 120 h, intracellular amastigotes, 5 days, separate assays separated by semicolons
[5] = average mammalian cell CC50 divided by average T. cruzi EC50

With `CCc1nc(N)nc(N)c1-c1ccc(Cl)cc1` [Pyrimethamine, 5-(4-chlorophenyl)-6-ethylpyrimidine-2,4-diamine] the activity at 10 µM [1, 3] was 24.2%, the EC50 [1, 4] was 3.82 µM and the EC50 ([1]; Trypanosoma cruzi, TULAHUEN, Fibroblast) was 3.8 µM. The Selectivity index [1, 5] was 7.5, the EC50 (T. brucei) was 17 µM and the CC50 (in vitro) was 28.5 µM. It also gave an activity at 10 µM (3T3 fibroblast cells) of 97.6%.
In the case of `CN1CCCC1CCOC(C)(c1ccccc1)c1ccc(Cl)cc1` (stereo not shown) [Clemastine, 2-{2-[1-(4-chlorophenyl)-1-phenylethoxy]ethyl}-1-methylpyrrolidine], the parasitemia [2] is reported as “no differences compared to the vehicle treated mice”, the activity at 10 µM (3T3 fibroblast cells) is reported as 93.2% and the “% of normal growth” value (T. cruzi amastigotes) is reported as 74%.
For `Clc1ccc(C(OCCN2CCCCC2)c2ccccc2)cc1` (stereo not shown) [Cloperastine, 1-{2-[(4-chlorophenyl)(phenyl)methoxy]ethyl}piperidine], the activity at 10 µM [1, 3] was 1.2%, the EC50 [1, 4] was 5.8 µM and the Selectivity index [1, 5] was 3.8. It also gave an EC50 ([1]; intracellular amastigotes, 5 days, separate assays separated by semicolons) of 5.6 µM, a CC50 (in vitro) of 21.4 µM and an activity at 10 µM (3T3 fibroblast cells) of 100%. For the same compound, the “% of normal growth” value (T. cruzi amastigotes) was 79%.
Work on `Nc1nc(N)c2nc(-c3ccccc3)c(N)nc2n1` [Triamterene, 6-phenylpteridine-2,4,7-triamine] yielded a Selectivity index [1] of 11.4, an activity at 10 µM [1, 3] of 17.3% and an EC50 [1, 4] of 1.66 µM. The EC50 ([1]; Trypanosoma cruzi, TULAHUEN, Fibroblast, Table S2, amastigotes) was 18.9 µM, the “activity against T. brucei” value (T. brucei; no reference given) was 48 µM and the CC50 (in vitro) was 23 µM. For the same compound, the CC50 (3T3 fibroblast cells; 3T3 fibroblasts, 72 hours, separate assays separated by semicolons, read-out: Mammalian cell CC50) was 14.8 µM and the activity at 10 µM (3T3 fibroblast cells) was 72.7%.
